{
  "source": "paper PMC3780409",
  "about": "(Methods in molecular biology (Clifton, N.J.), 2011)",
  "origin": "cited, not measured here",
  "key": {"[1]": {"test_system": "endothelial cells", "settings": "cited from earlier work"}, "[2]": {"test_system": "PAR2, PAR4, CXCR1, CXCR2, S1P1, S1P3, or CCR5 receptors", "settings": "recombinantly transfected HEK293 cells; cited from earlier work"}, "[3]": {"test_system": "PAR1", "settings": "sepsis, SIRS, DIC, mice; cited from earlier work"}, "[4]": {"test_system": "PAR1", "settings": "cited from earlier work"}, "[5]": {"test_system": "PAR1", "settings": "human platelets, 5 μM for 1 min; cited from earlier work"}, "[6]": {"test_system": "thromboxane, ADP, collagen, or GPIb/IX/V receptors", "settings": "specificity; cited from earlier work"}, "[7]": {"test_system": "PAR1", "settings": "cited from earlier work", "remark": "listed apart in the source"}, "[8]": {"test_system": "PAR1", "settings": "cited from earlier work", "remark": "listed apart in the source"}, "[9]": {"test_system": "PAR1", "settings": "cited from earlier work", "remark": "listed apart in the source"}},
  "note": "Entries after “also recorded” stand apart in the source; their conditions may differ.",
  "data": [
    {"substance": "N-pal-RCLSSSAVANRS-NH2 [Pepducin P1pal-12]", "values": [
      {"measurement": "responses to IL8, SDF-1α, S1P, thromboxane, MCP-1, RANTES", "setting": "[1]", "result": "no effect"},
      {"measurement": "migration to ligands for PAR2, PAR4, CXCR1, CXCR2, S1P1, S1P3, or CCR5 receptors", "setting": "[2]", "result": "no effect"},
      {"measurement": "Outcome", "setting": "[3]", "result": "Reduced organ damage and inflammatory mediators, inhibited neutrophil migration"},
      {"measurement": "thrombin plus collagen-induced calcium signal", "setting": "[4]; platelets", "result": "significantly decreased; also recorded: Decreased collagen-induced calcium signal"},
      {"measurement": "prothrombinase activity", "setting": "[4]; thrombin plus collagen", "result": "decreased the prothrombinase activity to levels induced by collagen alone"},
      {"measurement": "aggregation in response to 3 nM thrombin", "setting": "[5]", "result": "complete blockade"},
      {"measurement": "decrease in SFLLRN (PAR1 agonist)-induced aggregation", "setting": "[5]", "result": "75–95%"},
      {"measurement": "aggregation of platelets induced by agonists for the thromboxane, ADP, collagen, or GPIb/IX/V receptors", "setting": "[6]", "result": "lack of an effect"},
      {"measurement": "Outcome (thrombin generation)", "setting": "[7]", "result": "Delayed thrombin generation"},
      {"measurement": "relaxation induced by TFLLRN or P1pal-19", "setting": "[8]; precontracted rat aortic rings", "result": "decreased relaxation"},
      {"measurement": "Outcome (thrombin-induced relaxation)", "setting": "[8]; rat aortic rings", "result": "Decreased thrombin-induced relaxation in rat aortic rings"},
      {"measurement": "p38 MAPK activation", "setting": "[9]; human platelets, collagen", "result": "blocked p38 MAPK activation"},
      {"measurement": "collagen-induced platelet aggregation", "setting": "[9]; human platelets", "result": "Inhibition of collagen-induced platelet aggregation"},
      {"measurement": "propagation of platelet–platelet thrombi", "setting": "[9]; human whole blood, arterial flow conditions", "result": "significantly reduced"}
    ]}
  ]
}
